According to US8623851B2 (Mylan Specialty L.P., priority 2001, dated 2014):
Like-named read-outs stand apart in the source and are kept apart here.

What was measured:
[1] = tested on: patients with reversible obstructive respiratory diseases; settings: cited from earlier work
[2] = Decomposition kinetics (stability) of formoterol in aqueous solution; type: physicochemical
Excerpt: In the embodiments herein, the compositions have a pH of about 2.0 to about 8.0. The particular pH of a given composition for long term storage provided herein may be determined empirically using standard stability assays well known to those of skill in the art (see, e.g., the Examples). […] In certain of the above embodiments, the compositions are formulated at a pH of about 4, 4.4 or 4.6 up to about 5.5, 5.7 or 6. In other embodiments, the pH is about 5.0.
In other of the above embodiments, the compositions further contain a buffer, including, but not limited to, citric acid/phosphate, acetate, barbital, borate, Britton-Robinson, cacodylate, citrate, collidine, formate, maleate, Mcilvaine, phosphate, Prideaux-Ward, succinate, citrate-phosphate-borate (Teorell-Stanhagen), veronal acetate, MES (2-(N-morpholino)ethanesulfonic acid), BIS-TRIS (bis(2-hydroxyethyl)imino-tris-(hydroxymethyl)methane), ADA (N-(2-acetamido)-2-iminodiacetic acid), ACES (N-(carbamoylmethyl)-2-aminoethanesulfonaic acid), PIPES (piperazine-N,N′-bis(2-ethanesulfonic acid)), MOPSO (3-(N-morpholino)-2-hydroxypropanesulfonic acid), BIS-TRIS PROPANE (1,3-bis(tris(hydroxy-methyl)methylamino)propane), BES (N,N-bis(2-hydroxyethyl)-2-amino-ethanesulfonaic acid), MOPS (3-(N-morpholino)propanesulfonic acid), TES (N-tris(hydroxymethyl)methyl-2-aminoethanesulfonic acid), HEPES (N-(2-hydroxyethyl)piperazine-N′-(2-eth-anesulfonic acid), DIPSO (3-(N,N-bis(2-hydroxyethyl)amino)-2-hydroxypropan-esulfonicacid), MOBS (4-(N-morpholino)butanesulfonic acid), TAPSO (3-(N-tris(hydroxymethyl)methyl-amino)-2-hydroxypropanesulfonic acid), TRIZMA® (tris(hydroxymethyl-aminomethane), HEPPSO(N-(2-hydroxyethyl)piperazine-N′-(2-hydroxy-propanesulfonic acid), POPSO (piperazine-N,N′-bis(2-hydroxypropane-sulfonic acid)), TEA (triethanolamine), EPPS (N-(2-hydroxyethyl)-piperazine-N′-(3-propanesulfonic acid), TRICINE (N-tris(hydroxy-methyl)methylglycine), GLY-GLY (glycylglycine), BICINE (N,N-bis(2-hydroxyethyl)glycine), HEPBS (N-(2-hydroxyethyl)piperazine-N′-(4-butanesulfonic acid)), TAPS(N-tris(hydroxymethyl)methyl-3-amino-propanesulfonic acid), AMPD (2-amino-2-methyl-1,3-propanediol), and/or any other buffers known to those of skill in the art. In one embodiment, the buffer is citric acid/phosphate buffer, acetate buffer, citrate buffer or phosphate buffer. In another embodiment, the buffer is a citrate buffer (citric acid/sodium citrate). […] Buffer concentrations for use herein include from about 0 or 0.01 mM to about 150 mM, or about 1 mM to about 20 mM. In one embodiment, the buffer concentration is about 5 mM. In another embodiment, the buffer concentration is about 1 mM to about 50 mM, or about 20 mM. […] The particular buffer and buffer concentration of a given composition for long term storage provided herein may be determined empirically using standard stability assays well known to those of skill in the art (see, e.g., the Examples).
Ionic strengths of the compositions provided herein are from about 0 to about 0.4, or from about 0.05 to about 0.16. […] The particular ionic strength of a given composition for long term storage provided herein may be determined empirically using standard stability assays well known to those of skill in the art (see, e.g., the Examples).

[3] = Estimated shelf-life of formoterol in the compositions (Arrhenius kinetics); type: physicochemical

## COc1ccc(CC(C)NCC(O)c2ccc(O)c(NC=O)c2)cc1 (racemic) [formoterol, 2-hydroxy-5-((1RS)-1-hydroxy-2-(((1RS)-2-(p-methoxyphenyl)-1-methylethyl)amino)ethyl)formanilide]
[1]
  duration of bronchodilatory effect: greater than 12 hours
  onset of bronchodilatory effect: 1 to 3 min
[2]; aqueous solution, 60° C., buffer concentration 5 mM, ionic strength 0.05
  pH at which decomposition is slowest: about 5.0
[2]; aqueous solution, 60° C., pH 3, buffer concentration 5 mM, ionic strength 0.05
  rate constant (kobs) for decomposition: approximately 0.62 day^−1
[2]; aqueous solution, 60° C., pH 4, buffer concentration 5 mM, ionic strength 0.05
  rate constant (kobs) for decomposition: ~0.11 day⁻¹
[2]; aqueous solution, 60° C., pH 5, buffer concentration 5 mM, ionic strength 0.05
  rate constant (kobs) for decomposition: ~0.044 day⁻¹
[2]; aqueous solution, 60° C., pH 7, buffer concentration 5 mM, ionic strength 0.05
  rate constant (kobs) for decomposition: ~0.55 day⁻¹
[2]; low and approximately neutral pH conditions, buffer concentration 5 mM to 20 mM
  effect of buffer concentration on rate constant of decomposition: increased the rate constant of decomposition significantly
[2]; pH region of about 4.5 to about 5.5, buffer concentration 5 mM to 20 mM
  effect of buffer concentration on rate constant of decomposition: no noticeable differences in rate constant were observed
pH between about 5 and about 7, ambient temperature
  aqueous solubility: approximately 2.2 mg/mL
pH of about 3, ambient temperature
  aqueous solubility: about 4.8 mg/mL
pH of about 4, ambient temperature
  aqueous solubility: approximately 3 mg/mL
Pure water (HPLC water), ambient temperature
  solubility in pure water: approximately 2 mg/mL
[3]; 5° C.
  estimated shelf-life: about 6.2 years
[3]; 25° C.
  estimated shelf-life: about 7.5 months
